{
  "source": "paper PMC5244392",
  "about": "“Interspecies cathelicidin comparison reveals divergence in antimicrobial activity, TLR modulation, chemokine induction and regulation of phagocytosis” (Scientific Reports, 2017)",
  "key": {"[1]": {"system": "RAW264.7 cells", "experiment": "Cytotoxicity (WST-1 mitochondrial activity, PI staining)", "type": "cell-based, murine", "settings": "24 h, peptide 0.08-20 μM; WST-1 and PI staining", "procedure": "WST-1 reagent was obtained from Roche (Basel, Switzerland). RAW264.7 cells were incubated with cathelicidins for 24 h, after which the supernatant was removed and replaced with 10% WST-1 reagent in culture medium. After 20 minutes, absorbance was measured at 450 nm with a FLUOstar Omega microplate reader (BMG Labtech GmbH, Ortenberg, Germany) and was corrected for absorbance at 630 nm. Non-treated control cells were defined as 100% mitochondrial activity.\nIn addition, cells were detached after peptide exposure and stained with propidium iodide (PI) (BD bioscience, San Jose, CA, USA). Percentages of PI positive (i.e. dead) cells were determined with flow cytometry (BD FACSCanto II flow cytometer (BD Biosciences)) and analyzed with FlowJo software (Ashland, OR, USA). […]\nSupplementary Figure 3: Cytotoxicity of cathelicidins on RAW264.7 cells\n(A) RAW264.7 cells were incubated for 24 hours with diﬀerent cathelicidins (0.08 µM, 0.31 µM, 1.25 µM, 5 µM, and 20 µM), after which they were incubated with WST-1 reagent for 20 minutes to measure the mitochondrial activity. No peptide control was set to 100% mitochondrial activity. Dotted line represents 80% mitochondrial activity. Results are presented as average +/- SEM (N = 4).\n(B) RAW264.7 cells were incubated with diﬀerent cathelicidins (0.31 µM, 1.25 µM, 5 µM, and 20 µM). Cells were stained for PI to detect dead cells. […]"}, "[2]": {"system": "S. aureus", "experiment": "MBC by plating wells without visible growth, S. aureus", "type": "cell-based, Staphylococcus aureus", "settings": "S. aureus in DMEM; results not shown", "procedure": "In order to compare our Cmax with MBC values, wells without visible bacterial growth were plated out on TSA plates and incubated o/n at 37 °C to determine the presence of viable bacteria.\nThe antimicrobial capacities were tested under the same conditions and expressed as growth delay instead of the more classical MIC/MBC determination using broth dilution assays. […] The fact that DMEM medium makes S. aureus susceptible to PR-39 is surprising since this peptide is thought to require active uptake by the SbmA transporter, only present in Gram – bacteria. The results obtained in this work, might indicate that the peptide possibly switches to a different mechanism of action with initially a bacteriostatic effect, but more thorough studies are required to elucidate the details of these initial observations."}},
  "data": [
    {"substance": "Ac-GRFRRLRKKTRKRLKKIGKVLKWIPPIVGSIPLGCG [PMAP-36, porcine α-helical cathelicidin, N-acetylated, 36 residues, charge +13]", "values": [
      {"measurement": "Cytotoxicity to RAW264.7 cells, in words", "setting": "[1]", "result": "some cytotoxicity, but only at the highest concentration"}
    ]},
    {"substance": "RRRPRPPYLPRPRPPPFFPPRLPPRIPPGFPPRFPPRFP [PR-39, porcine proline-rich cathelicidin forming a polyproline helix, 39 residues, charge +10]", "values": [
      {"measurement": "Fold higher MBC than Cmax", "setting": "[2]", "result": 16, "unit": "fold"}
    ]}
  ]
}
